Data reported in patent publication US9593305B2, “Differentiation of pluripotent stem cells” (Janssen Biotech, Inc., priority 2008, dated 2017).

Test system: human embryonic stem cells
Test: Dose response of activin A and GDF-8, SOX17 intensity (Example 11, Table 11)
Format: cell-based
Details: Wnt3a day 1, three days
Procedure: Stock cultures of human embryonic stem cells (1-11 human embryonic stem cell line) were maintained in an undifferentiated, pluripotent state on reduced growth factor […]-coated dishes in MEF conditioned medium with passage on average every four days. Passage was performed by exposing cell cultures to a solution of 1 mg/ml dispase (Invitrogen, Cat #: 17105-041) for 5 to 7 minutes at 37° C. followed by rinsing the monolayer with MEF conditioned culture medium and gentle scraping to recover cell clusters. Clusters were centrifuged at low speed to collect a cell pellet and remove residual dispase. Cell clusters were split at a 1:3 or 1:4 ratio for routine maintenance culture or a 1:1 ratio for immediate assay. All human embryonic stem cell lines were maintained at passage numbers less than 50 and routinely evaluated for normal karyotypic phenotype and for absence of mycoplasma contamination.
Cell clusters used in the assay were evenly resuspended in MEF conditioned medium supplemented with 8 ng/ml bFGF and seeded onto reduced growth factor […]™-coated 96-well Packard VIEWPLATES (PerkinElmer; Cat #6005182) in volumes of 100 μl/well. MEF conditioned medium supplemented with 8 ng/ml bFGF was used for initial plating and expansion. Daily feeding was conducted by aspirating spent culture medium from each well and replacing with an equal volume of fresh medium. Plates were maintained at 37° C., 5% CO2 in a humidified box throughout the duration of assay.
The assay was initiated by aspirating the culture medium from each well and adding back an aliquot (100 μl) of test medium. Test conditions were performed in quadruplicate over a total three-day assay period, feeding on day 1 and day 2 by aspirating and replacing the medium from each well with fresh test medium. Two 12-channel polypropylene basins (Argos technologies, Inc, Cat #: B3135) were used to make the test media containing different concentrations of Activin A (PeproTech; Cat #120-14) or GDF-8 (R&D Systems, Cat #788-G8). Channels numbered 2 through 12 of each basin contained 1 ml assay medium composed of RPMI-1640 medium (Invitrogen; Cat #: 22400) supplemented with 2% Albumin Bovine Fraction V, Fatty Acid Free (FAF BSA) (MP Biomedicals, Inc; Cat #152401) and 8 ng/ml bFGF (PeproTech Inc.; Cat #: 100-18B), and with 20 ng/ml Wnt3a (R&D Systems; Cat #1324-WN/CF) added on day 1, omitted on day 2 and 3. Channel number 1 of each basin contained 1600 ng/ml Activin A or 1600 ng/ml GDF-8, diluted into the same assay medium. One ml of medium was transferred from channel number 1 to channel number 2 and mixed well. A fresh pipette tip was used to transfer one ml of medium from channel number 2 to channel number 3, followed by thorough mixing. The same procedure was repeated in sequence through channel number 11 for each respective basin. Channel number 12 of each basin contained medium without Activin A or GDF-8. By doing this, a series of two-fold test dilutions was created, containing Activin A or GDF-8 at concentrations ranging from 1.6 ng/ml to 1600 ng/ml, for addition to the respective assay wells.
At the conclusion of three days of culture, assay plates were washed once with PBS (Invitrogen; Cat #14190), fixed with 4% paraformaldehyde (Alexis Biochemical; Cat #ALX-350-011) at room temperature for 20 minutes, then washed three times with PBS and permeabilized with 0.5% Triton X-100 (Sigma; Cat #T8760-2) for 20 minutes at room temperature. Cells were washed again three times with PBS and blocked with 4% chicken serum (Invitrogen; Cat #16110082) in PBS for 30 minutes at room temperature. Primary antibody (goat anti-human SOX17; R&D Systems; Cat #AF1924) was diluted 1:100 in 4% chicken serum and added to each well for two hours at room temperature. After washing three times with PBS, Alexa Fluor 488 conjugated secondary antibody (chicken anti-goat IgG; Invitrogen; Cat #A21467) diluted 1:200 in PBS was added to each well. […]

| Substance | Normalized SOX17 Intensity, Average (1.56 ng/ml growth factor) [%] | Normalized SOX17 Intensity, Average (3.13 ng/ml growth factor) [%] | Normalized SOX17 Intensity, Average (6.25 ng/ml growth factor) [%] | Normalized SOX17 Intensity, Average (12.50 ng/ml growth factor) [%] | Normalized SOX17 Intensity, Average (25 ng/ml growth factor) [%] | Normalized SOX17 Intensity, Average (50 ng/ml growth factor) [%] | Normalized SOX17 Intensity, Average (100 ng/ml growth factor) [%] | Normalized SOX17 Intensity, Average (200 ng/ml growth factor) [%] | Normalized SOX17 Intensity, Average (400 ng/ml growth factor) [%] | Normalized SOX17 Intensity, Average (800 ng/ml growth factor) [%] | Normalized SOX17 Intensity, Average (1600 ng/ml growth factor) [%] | EC50 (SOX17 intensity, GraphPad Prism) [µg/mL] |
| --- | --- | --- | --- | --- | --- | --- | --- | --- | --- | --- | --- | --- |
| Activin A: recombinant human activin A (PeproTech), TGF-beta family member | 0.10 | 3.00 | 18.40 | 50.90 | 73.10 | 85.20 | 90.70 | 100.00 | 100.00 | 100.00 | 100.00 | 0.0139 |
| GDF-8: growth factor GDF-8, also known as myostatin, member of the TGF-β family | 0.00 | 0.10 | 0.70 | 0.90 | 5.10 | 17.60 | 32.70 | 51.30 | 72.20 | 84.90 | 100.00 | 0.1848 |
